Results on 58 molecules are retold here after patent US9718790B2, “Triazine derivative and pharmaceutical composition having an analgesic activity comprising the same” (SHIONOGI & CO., LTD., priority 2010, dated 2017).

For orientation: IC50 means the concentration that gives 50% inhibition.

human P2X3 receptor, sequence (P56373 whole entry): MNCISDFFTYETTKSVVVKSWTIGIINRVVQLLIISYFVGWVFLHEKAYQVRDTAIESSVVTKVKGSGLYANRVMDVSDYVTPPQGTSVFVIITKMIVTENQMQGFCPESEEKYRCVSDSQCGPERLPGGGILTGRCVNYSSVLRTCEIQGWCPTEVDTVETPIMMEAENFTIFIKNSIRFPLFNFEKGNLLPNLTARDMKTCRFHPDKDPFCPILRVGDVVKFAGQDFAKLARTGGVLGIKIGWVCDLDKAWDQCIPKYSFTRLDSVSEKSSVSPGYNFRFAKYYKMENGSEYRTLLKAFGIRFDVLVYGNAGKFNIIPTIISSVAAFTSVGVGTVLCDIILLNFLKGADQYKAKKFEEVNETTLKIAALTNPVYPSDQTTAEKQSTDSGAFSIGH

The first experiment addresses human P2X3 receptor (Homo sapiens (Human), UniProt P56373). As to the kind of experiment: Evaluation of human P2X3 receptor inhibitory activity (Fluo-3 calcium fluorescence, FDSS 3000, ATP stimulation).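 Also: stimulus was 50 nM ATP with fluorescence followed for 3 min, and the response per well was peak post-ATP fluorescence divided by the reading at measurement start.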 The format is cell-based. Conditions: C6BU-1 cells stably expressing human P2X3 receptor.
As for `CCn1c(=O)[nH]/c(=N\c2ccc(Oc3cccc(C(N)=O)c3)cc2)n(Cc2ccc(Cl)cc2)c1=O` [Compound I-1925], the IC50 worked out at 6 nM.

In the case of `CCn1c(=O)[nH]/c(=N\c2ccc(Oc3cccc4[nH]ncc34)c(Cl)c2)n(Cc2ccc(Cl)cc2)c1=O` [Compound I-2196], the IC50 worked out at 446 nM.

Consider `CCOC(=O)CCn1c(=O)[nH]/c(=N\c2ccc(CC(C)C)c(OC)c2)n(Cc2ccc(Cl)cc2)c1=O` [Compound I-1308], for which the IC50 amounted to 29 nM.

In the case of `Cc1ccc(Cn2c(=O)n(CCC(=O)O)c(=O)[nH]/c2=N\c2cccc(C(F)(F)F)c2F)cc1` [Compound I-2086], the half-maximal inhibitory concentration (IC50) was 234 nM. The same measure, in the same setting: to `CCc1nc2ccc(/N=c3\[nH]c(=O)n(C[C@H](C)C(=O)O)c(=O)n3Cc3ccc(Cl)cc3)cc2o1` [Compound I-1382] belongs 257 nM; to `CCn1c(=O)[nH]/c(=N\c2ccc(Oc3ccc(S(N)(=O)=O)cc3)cc2)n(Cc2ccc(C)cc2)c1=O` [Compound I-2032], 4 nM; to `CC(C)Oc1ccc(/N=c2\[nH]c(=O)n(C[C@H](C)C(=O)O)c(=O)n2Cc2ccc(F)cc2)cc1` [Compound I-0639], 216 nM. Regarding `COC(=O)[C@@H](C)Cn1c(=O)[nH]/c(=N\c2ccc(OCC(F)F)c(C)c2)n(Cc2ccc(Cl)cc2)c1=O` [Compound I-0738], the 50% inhibitory concentration (IC50) was determined as 19 nM. The same measure, in the same setting: next, `CC1CCC(Cn2c(=O)n(CCO)c(=O)[nH]/c2=N\c2ccc(Oc3ccnc(O)c3)cc2)CC1` (stereo not shown) [Compound I-2022]: 7 nM; `CCn1c(=O)[nH]/c(=N\c2ccc(Oc3ccc(CO)nc3)cc2)n(Cc2ccc(Cl)cc2)c1=O` [Compound I-2114]: 7 nM; `CCn1c(=O)[nH]/c(=N\c2ccc(OC3CNC=C(C(=O)OC)C3)cc2)n(Cc2ccc(Cl)cc2)c1=O` (stereo not shown) [Compound I-2138]: 171 nM. Turning to `CC(C)Oc1ccc(/N=c2\[nH]c(=O)n(CC(=O)NC3CCOCC3)c(=O)n2Cc2ccc(Cl)cc2)cc1Cl` [Compound I-0663], the IC50 was 5 nM. Turning to `Cc1ccc(Cn2c(=O)n(C[C@H](C)C(=O)O)c(=O)[nH]/c2=N\c2ccc(/C=C/C3CC3)cc2)cc1` [Compound I-1200], the 50% inhibitory concentration (IC50) worked out at 45 nM. In the case of `Cc1ccc(Cn2c(=O)n(C[C@H](C)C(=O)O)c(=O)[nH]/c2=N\c2ccc(OC3COC3)cc2)cc1` [Compound I-1221], the IC50 was determined as 117 nM.

The same experiment, now with this note: C6BU-1 cells stably expressing human P2X3 receptor, Fluo-3 fluorescence, FDSS 3000.
On to `Cc1nc2ccc(/N=c3\[nH]c(=O)n(CC(=O)O)c(=O)n3Cc3ccc(Cl)cc3)cc2s1` [Compound I-1610], for which the half-inhibitory concentration (IC50) came out at 251 nM. As to `CCn1c(=O)[nH]/c(=N\c2ccc(Oc3cc(O)ncn3)cc2)n(Cc2ccc(Cl)cc2)c1=O` [Compound I-1888], the IC50 came out at 10 nM. Take `CNC(=O)CCn1c(=O)[nH]/c(=N\c2ccc(Oc3ccc(O)nc3)cc2)n(Cc2ccc(Cl)cc2)c1=O` [Compound I-1600]: the IC50 was found to be 11 nM. On the same count and under the same terms, next, `COc1ccc(COc2cc(Cn3c(=O)[nH]/c(=N\c4ccc(OC(C)C)c(F)c4)n(Cc4ccc(Cl)cc4)c3=O)on2)cc1` [Compound I-1764]: 35 nM; `COC(=O)[C@@H](C)Cn1c(=O)[nH]/c(=N\c2ccc(OC(C)C)c(C#N)c2)n(Cc2ccc(C)cc2)c1=O` [Compound I-0951]: 33 nM. `COC(=O)[C@@H](C)Cn1c(=O)[nH]/c(=N\c2cccc(SC)c2)n(Cc2ccc(Cl)cc2)c1=O` [Compound I-1151]: the half-maximal inhibitory concentration (IC50) turned out to be 46 nM.

With `CCCCCOc1ccc(/N=c2\[nH]c(=O)n(CCC(=O)OCC)c(=O)n2Cc2ccc(C)cc2)cc1` [Compound I-1058], the concentration for half-maximal inhibition (IC50) was 43 nM. For the molecule `COC(=O)[C@@H](C)Cn1c(=O)[nH]/c(=N\c2ccc(C#CC3CC3)c(C)c2)n(Cc2ccc(Cl)cc2)c1=O` [Compound I-1041, (S)-1-(4-chlorobenzyl)-6-(3-mehyl-4-cyclopropylethynylphenylimino)-3-(2-methoxycarbonylpropyl)-1,3,5-triazinane-2,4-dion], the half-maximal inhibitory concentration (IC50) worked out at 101 nM. Take `C=Cc1cc(/N=c2\[nH]c(=O)n(C[C@H](C)C(=O)O)c(=O)n2Cc2ccc(C)cc2)ccc1OC(C)C` [Compound I-0910, (S)-1-(4-methylbenzyl)-6-(3-vinyl-4-isopropoxyphenylimino)-3-(2-hydroxycarbonylpropyl)-1,3,5-triazinane-2,4-dion]: the half-inhibitory concentration (IC50) was 8 nM. Same read-out and setting: to `Cc1ccc(Cn2c(=O)n(CCC(=O)O)c(=O)[nH]/c2=N\c2ccc(O[C@H](C)C(F)(F)F)cc2)cc1` [Compound I-1031] belongs 64 nM; to `Cc1ccc(Cn2c(=O)n(CC3(C(=O)O)CC3)c(=O)[nH]/c2=N\c2ccc(OCC3CC3)c(Cl)c2)cc1` [Compound I-0976], 69 nM. Same read-out and setting: next, `Cc1ccc(Cn2c(=O)n(CC3(C(=O)O)CC3)c(=O)[nH]/c2=N\c2ccc(OCC3CC3)cc2)cc1` [Compound I-0915]: 75 nM; `CCOC(=O)CCn1c(=O)[nH]/c(=N\c2ccc(O[C@H](C)CC)cc2)n(Cc2ccc(C)cc2)c1=O` [Compound I-1018]: 8 nM. In the case of `CC(C)Cc1ccc(/N=c2\[nH]c(=O)n(CC(C)(CO)CO)c(=O)n2Cc2ccc(Cl)cc2)cc1Cl` [Compound I-1637], the IC50 was 12 nM.

Take `COc1ccc(Oc2ccc(/N=c3\[nH]c(=O)n(CC(=O)O)c(=O)n3Cc3ccc(Cl)cc3)cc2)cn1` [Compound I-1799]: the half-maximal inhibitory concentration (IC50) came to 382 nM. `CNC(=O)c1cc(Oc2ccc(/N=c3\[nH]c(=O)n(CCO)c(=O)n3Cc3ccc(Cl)cc3)cc2)ccn1` [Compound I-1735]: the concentration for half-maximal inhibition (IC50) came to 3 nM. In the case of `CC[C@H](C)COc1ccc(/N=c2\[nH]c(=O)n(C[C@H](C)C(=O)OC)c(=O)n2Cc2ccc(C)cc2)cc1` [Compound I-1045], the half-inhibitory concentration (IC50) amounted to 159 nM.

In the case of `Cc1ccc(Cn2c(=O)n(CC3(CC(=O)O)CC3)c(=O)[nH]/c2=N\c2ccc(OC(C)C)c(Cl)c2)cc1` [Compound I-0983], the IC50 is 7 nM. As for `COC(=O)[C@@H](C)Cn1c(=O)[nH]/c(=N\c2ccc(OC(C)C)c(O)c2)n(Cc2ccc(C)cc2)c1=O` [Compound I-1128], the 50% inhibitory concentration (IC50) is 21 nM. Still for that read-out and setting: next, `COC(=O)Cn1c(=O)[nH]/c(=N\c2ccc(Oc3ccc(C)nc3)cc2)n(Cc2ccc(Cl)cc2)c1=O` [Compound I-1904]: 8 nM; `COc1ccc(Oc2ccc(/N=c3\[nH]c(=O)n(CCO)c(=O)n3Cc3ccc(Cl)cc3)cc2)cn1` [Compound I-1732]: 11 nM; `COC(=O)[C@H](C)[C@H](C)n1c(=O)[nH]/c(=N\c2ccc(OCC3CC3)cc2)n(Cc2ccc(C)cc2)c1=O` [Compound I-0965]: 21 nM. On the same count and under the same terms, to `C[C@@H](C(=O)O)[C@H](C)n1c(=O)[nH]/c(=N\c2ccc3[nH]ncc3c2)n(Cc2ccc(Cl)cc2)c1=O` [Compound I-1743] belongs 861 nM; to `CCc1nc2ccc(/N=c3\[nH]c(=O)n(CC(N)=O)c(=O)n3Cc3ccc(Cl)cc3)cc2s1` [Compound I-1805], 5 nM; to `CCc1oc2ccc(/N=c3\[nH]c(=O)n(CC(N)=O)c(=O)n3Cc3ccc(Cl)cc3)cc2c1C` [Compound I-1656], 7 nM.

Still in this experiment, the particulars now being: human P2X3 receptor, Test Example 1.
In the case of `COC(=O)[C@@H](C)Cn1c(=O)[nH]/c(=N\c2ccc(OCC(F)F)cc2)n(Cc2ccc(Cl)cc2)c1=O` [Compound I-0846], the half-maximal inhibitory concentration (IC50) amounted to 35 nM. `O=c1[nH]/c(=N\c2ccc(Oc3cccc(F)n3)cc2)n(Cc2ccc(Cl)cc2)c(=O)n1C[C@H](O)CO` [Compound I-2436]: the half-maximal inhibitory concentration (IC50) worked out at 4 nM. On the same count and under the same terms, next, `CC(CO)(CO)Cn1c(=O)[nH]/c(=N\c2ccc(Oc3ccsn3)cc2)n(Cc2ccc(Cl)cc2)c1=O` [Compound I-2531]: 4 nM; `COCCn1c(=O)[nH]/c(=N\c2ccc(Oc3ccnc(C(=O)OC)c3)cc2)n(Cc2ccc(Cl)cc2)c1=O` [Compound I-2536]: 5 nM. Same read-out and setting: next, `CCn1c(=O)[nH]/c(=N\c2ccc(Oc3ccc(C#N)cc3)nc2)n(Cc2ccc(Cl)cc2)c1=O` [Compound I-2613]: 137 nM. On to `CNC(=O)[C@H](C)n1c(=O)[nH]/c(=N\c2ccc(Oc3ccon3)cc2)n(Cc2ccc(Cl)cc2)c1=O` [Compound I-2535], for which the IC50 came out at 44 nM. Still for that read-out and setting: next, `CCn1c(=O)[nH]/c(=N\c2ccc(Oc3ccnc(CN(C)C)c3)cc2)n(Cc2ccc(Cl)cc2)c1=O` [Compound I-2244]: 59 nM; `CCn1c(=O)[nH]/c(=N\c2ccc(O[C@H]3CN[C@H](C(=O)OC)C3)cc2)n(Cc2ccc(Cl)cc2)c1=O` [Compound I-2277]: 107 nM; `COC(=O)[C@@H](C)Cn1c(=O)[nH]/c(=N\c2ccc(Oc3ccc(OC)nc3)cc2)n(Cc2ccc(C)cc2)c1=O` [Compound I-1522]: 5 nM. Same read-out and setting: to `O=c1[nH]/c(=N\c2ccc(Oc3nccs3)cc2)n(Cc2ccc(Cl)cc2)c(=O)n1C[C@H](O)CO` [Compound I-2294] belongs 5 nM; to `O=C(O)Cn1c(=O)[nH]/c(=N\c2ccc(Oc3cccnn3)cc2)n(Cc2ccc(Cl)cc2)c1=O` [Compound I-2663], 330 nM. Regarding `CCn1c(=O)[nH]/c(=N\c2cccc(Oc3cccc(C(=O)O)n3)c2)n(Cc2ccc(Cl)cc2)c1=O` [Compound I-2592], the IC50 is 350 nM. Same read-out and setting: to `CCCOc1ccc(/N=c2\[nH]c(=O)n(C[C@H](C)C(=O)O)c(=O)n2Cc2ccc(C)cc2)cc1Cl` [Compound I-0840] belongs 17 nM; to `COCc1c(Cl)cc(/N=c2\[nH]c(=O)n(C[C@H](C)C(=O)O)c(=O)n2Cc2ccc(C)cc2)cc1Cl` [Compound I-1501], 11 nM; to `CCn1c(=O)[nH]/c(=N\c2ccc(Oc3ncccc3C#N)cc2)n(Cc2ccc(Cl)cc2)c1=O` [Compound I-2345], 20 nM. Still for that read-out and setting: to `Cc1nsc(Oc2ccc(/N=c3\[nH]c(=O)n(CCCO)c(=O)n3Cc3ccc(F)cc3)cc2)n1` [Compound I-2606] belongs 14 nM; to `Cc1nsc(Oc2ccc(/N=c3\[nH]c(=O)n(CC(C)(CO)CO)c(=O)n3Cc3ccc(F)cc3)cc2)n1` [Compound I-2571], 7 nM; to `CNC(=O)c1cc(Oc2ccc(/N=c3\[nH]c(=O)n(C4CC4)c(=O)n3Cc3ccc(Cl)cc3)cc2)ccn1` [Compound I-2309], 2 nM. Take `O=c1[nH]/c(=N\c2ccc(Oc3ccnc(F)c3)cc2)n(Cc2ccc(Cl)cc2)c(=O)n1CC(CO)CO` [Compound I-2705]: the half-maximal inhibitory concentration (IC50) stood at 3 nM.
